T/C data for 16 compounds are collected here from PubChem BioAssay AID248 (DTP/NCI, 2004).

Several values for one entry are separate records, joined by “and”; a condition that tells them apart may be missing. Equal values may be shown once. Toxic doses and inconclusive results are not listed.

The test system of this test is L1210 leukemia ip in BDF1 mice, survival T/C. Description: NCI In Vivo Anticancer Drug Screen. Data for tumor model L1210 Leukemia (intraperitoneal) in B6D2F1 (BDF1) mice. Conditions: endpoint: mean survival time, higher = longer survival. In outline: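 Mice bearing the transplanted tumor received compound or vehicle. Survival of the treated group was divided by that of the vehicle-treated control group to give the ratio.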

The mark [1] stands for this setting: dose: 100.0 mg/kg/injection, schedule: Q01DX009 (ip), vehicle: Klucel (hydroxypropylcellulose) (HPC).
[2] abbreviates: dose: 200.0 mg/kg/injection, schedule: Q01DX009 (ip), vehicle: Klucel (hydroxypropylcellulose) (HPC).
[3] abbreviates: dose: 400.0 mg/kg/injection, schedule: Q01DX009 (ip), vehicle: Klucel (hydroxypropylcellulose) (HPC).
Where [4] appears, read: dose: 100.0 mg/kg/injection, schedule: Q01DX009 (ip), vehicle: saline with Tween-80.
[5] abbreviates: dose: 100.0 mg/kg/injection, schedule: Q04DX003 (ip), vehicle: saline with Tween-80.
[6] abbreviates: dose: 200.0 mg/kg/injection, schedule: Q01DX009 (ip), vehicle: saline with Tween-80.
Where [7] appears, read: dose: 200.0 mg/kg/injection, schedule: Q04DX003 (ip), vehicle: saline with Tween-80.
The mark [8] stands for this setting: dose: 400.0 mg/kg/injection, schedule: Q04DX003 (ip), vehicle: saline with Tween-80.
Where [9] appears, read: dose: 100.0 mg/kg/injection, schedule: Q01DX001 (ip), vehicle: carboxymethylcellulose (CMC).
The mark [10] stands for this setting: dose: 200.0 mg/kg/injection, schedule: Q01DX001 (ip), vehicle: carboxymethylcellulose (CMC).
[11] abbreviates: dose: 400.0 mg/kg/injection, schedule: Q01DX001 (ip), vehicle: carboxymethylcellulose (CMC).

Consider `O=C(O)CCCCCN1C(=O)c2cccnc2C1=O`, for which the T/C by setting is: (dose: 75.0 mg/kg/injection, schedule: Q04DX003 (ip), vehicle: carboxymethylcellulose (CMC)) 103 % of control; (dose: 150.0 mg/kg/injection, schedule: Q04DX003 (ip), vehicle: carboxymethylcellulose (CMC)) 97 % of control; (dose: 300.0 mg/kg/injection, schedule: Q04DX003 (ip), vehicle: carboxymethylcellulose (CMC)) 98 % of control.

For the compound `COc1ccc([N+](=O)[O-])cc1NC(=O)COc1cc(Cl)c(Cl)cc1Cl`, the T/C was 94 % of control under setting [1], 108 % of control under setting [2] and 94 % of control under setting [3].

On to `O=c1c2ccccc2[nH]c2cc(-n3nnc4ccccc4c3=O)ccc12`, for which the T/C (dose: 75.0 mg/kg/injection, schedule: Q01DX001 (ip), vehicle: saline) is 88 % of control; the T/C (dose: 150.0 mg/kg/injection, schedule: Q01DX001 (ip), vehicle: saline) was 88 % of control; the T/C (dose: 300.0 mg/kg/injection, schedule: Q01DX001 (ip), vehicle: saline) was 98 % of control.

`c1ccc(-c2nnc3oc(-c4ccco4)nn23)cc1`: the T/C was 100 % of control under setting [4]; 96 % of control under setting [5]; 101 % of control under setting [6]; 102 % of control under setting [7]; 101 % of control (dose: 400.0 mg/kg/injection, schedule: Q01DX009 (ip), vehicle: saline with Tween-80); 94 % of control under setting [8].

As to `O=C(c1ccccc1)c1ccc(C2CCCCC2)cc1`, the T/C (dose: 50.0 mg/kg/injection, schedule: Q01DX001 (ip), vehicle: carboxymethylcellulose (CMC)) is 98 % of control; the T/C under setting [9] was 104 % of control; the T/C under setting [10] is 98 % of control; the T/C under setting [11] is 100 % of control.

Consider `O=NN(CCCl)C(=O)N[C@H]1CCCC[C@H]1Cl`, for which the T/C runs as follows: (dose: 12.0 mg/kg/injection, schedule: Q01DX001 (ip), vehicle: carboxymethylcellulose (CMC)) 108 % of control; (dose: 16.0 mg/kg/injection, schedule: Q01DX001 (ip), vehicle: carboxymethylcellulose (CMC)) 175 % of control; (dose: 31.0 mg/kg/injection, schedule: Q01DX001 (ip), vehicle: carboxymethylcellulose (CMC)) 180 % of control; (dose: 36.0 mg/kg/injection, schedule: Q01DX001 (ip), vehicle: carboxymethylcellulose (CMC)) 177 % of control; (dose: 40.0 mg/kg/injection, schedule: Q01DX001 (ip), vehicle: carboxymethylcellulose (CMC)) 168 % of control; (dose: 54.0 mg/kg/injection, schedule: Q01DX001 (ip), vehicle: carboxymethylcellulose (CMC)) 289 % of control. Further, the T/C (dose: 62.0 mg/kg/injection, schedule: Q01DX001 (ip), vehicle: carboxymethylcellulose (CMC)) is 218 % of control and 304 % of control; the T/C (dose: 72.0 mg/kg/injection, schedule: Q01DX001 (ip), vehicle: carboxymethylcellulose (CMC)) was 289 % of control; the T/C (dose: 90.0 mg/kg/injection, schedule: Q01DX001 (ip), vehicle: carboxymethylcellulose (CMC)) is 295 % of control; the T/C (dose: 93.0 mg/kg/injection, schedule: Q01DX001 (ip), vehicle: carboxymethylcellulose (CMC)) was 177 % of control; the T/C (dose: 108.0 mg/kg/injection, schedule: Q01DX001 (ip), vehicle: carboxymethylcellulose (CMC)) was 307 % of control; the T/C (dose: 125.0 mg/kg/injection, schedule: Q01DX001 (ip), vehicle: carboxymethylcellulose (CMC)) was 175 % of control. Further, the T/C runs as follows: (dose: 135.0 mg/kg/injection, schedule: Q01DX001 (ip), vehicle: carboxymethylcellulose (CMC)) 306 % of control; (dose: 187.0 mg/kg/injection, schedule: Q01DX001 (ip), vehicle: carboxymethylcellulose (CMC)) 107 % of control; (dose: 207.0 mg/kg/injection, schedule: Q01DX001 (ip), vehicle: carboxymethylcellulose (CMC)) 242 % of control.

Turning to `O=C(NCCNC(=O)c1ccncc1)c1ccccc1`, the T/C is 93 % of control under setting [9], 104 % of control under setting [10] and 98 % of control under setting [11].

In the case of `COc1cc(/C(C)=N/N=C(\C)c2ccc(O)c(OC)c2)ccc1O`, the T/C is 94 % of control (dose: 100.0 mg/kg/injection, schedule: Q01DX009 (ip), vehicle: saline); 90 % of control (dose: 200.0 mg/kg/injection, schedule: Q01DX009 (ip), vehicle: saline); 90 % of control (dose: 400.0 mg/kg/injection, schedule: Q01DX009 (ip), vehicle: saline).

Regarding `COC(=N)c1ccc(O)cc1`, the T/C by setting is: (dose: 100.0 mg/kg/injection, schedule: Q04DX002 (ip), vehicle: saline with Tween-80) 94 % of control; (dose: 200.0 mg/kg/injection, schedule: Q04DX002 (ip), vehicle: saline with Tween-80) 98 % of control.

With `c1nc([N+]23CCC(CC2)CC3)c2[nH]cnc2n1`, the T/C (dose: 5.0 mg/kg/injection, schedule: Q01DX001 (ip), vehicle: saline) is 111 % of control; the T/C (dose: 10.0 mg/kg/injection, schedule: Q01DX001 (ip), vehicle: saline) is 103 % of control; the T/C (dose: 20.0 mg/kg/injection, schedule: Q01DX001 (ip), vehicle: saline) was 113 % of control; the T/C (dose: 40.0 mg/kg/injection, schedule: Q01DX001 (ip), vehicle: saline) was 97 % of control; the T/C (dose: 80.0 mg/kg/injection, schedule: Q01DX001 (ip), vehicle: saline) is 108 % of control.

As for `C1=C(c2ccccc2)S/C(=C/c2ccccc2)S1`, the T/C was 96 % of control (dose: 25.0 mg/kg/injection, schedule: Q01DX009 (ip), vehicle: saline with Tween-80); 96 % of control (dose: 50.0 mg/kg/injection, schedule: Q01DX009 (ip), vehicle: saline with Tween-80); 88 % of control (dose: 50.0 mg/kg/injection, schedule: Q04DX003 (ip), vehicle: saline); 93 % of control (dose: 100.0 mg/kg/injection, schedule: Q01DX001 (ip), vehicle: saline); 94 % of control under setting [4]; 87 % of control (dose: 100.0 mg/kg/injection, schedule: Q04DX003 (ip), vehicle: saline). In addition, the T/C reads like this: (dose: 200.0 mg/kg/injection, schedule: Q01DX001 (ip), vehicle: saline) 88 % of control; (dose: 400.0 mg/kg/injection, schedule: Q01DX001 (ip), vehicle: saline) 88 % of control.

`COc1ccc(NC(=O)Oc2ccc(F)cc2)c(OC)c1`: the T/C is 89 % of control under setting [1], 101 % of control under setting [2] and 94 % of control under setting [3].

For `COc1ccc(/C=C2\N=C(c3ccco3)OC2=O)cc1Br`, the T/C runs as follows: under setting [1], 94 % of control; under setting [2], 94 % of control; under setting [3], 91 % of control.

Turning to `C[Si](C)(C)Cc1ccc(F)cc1`, the T/C runs as follows: (dose: 25.6 mg/kg/injection, schedule: Q04DX002 (ip), vehicle: saline with Tween-80) 90 % of control; (dose: 64.0 mg/kg/injection, schedule: Q04DX002 (ip), vehicle: saline with Tween-80) 93 % of control; under setting [5], 93 % of control; (dose: 160.0 mg/kg/injection, schedule: Q04DX002 (ip), vehicle: saline with Tween-80) 97 % of control; under setting [7], 97 % of control; (dose: 400.0 mg/kg/injection, schedule: Q04DX002 (ip), vehicle: saline with Tween-80) 97 % of control. The T/C under setting [8] was 93 % of control.

Turning to `CCOC(=O)c1c(Cl)c(Cl)c(Cl)c(Cl)c1C(=O)O`, the T/C is 95 % of control (dose: 100.0 mg/kg/injection, schedule: Q01DX001 (ip), vehicle: saline with Tween-80); 96 % of control under setting [4]; 97 % of control (dose: 200.0 mg/kg/injection, schedule: Q01DX001 (ip), vehicle: saline with Tween-80); 102 % of control under setting [6]; 115 % of control (dose: 400.0 mg/kg/injection, schedule: Q01DX001 (ip), vehicle: saline with Tween-80).

Take `CCc1c(C)nc2[nH]ncn2c1=O`: the T/C is 96 % of control (dose: 75.0 mg/kg/injection, schedule: Q01DX001 (ip), vehicle: other); 97 % of control (dose: 150.0 mg/kg/injection, schedule: Q01DX001 (ip), vehicle: other); 93 % of control (dose: 300.0 mg/kg/injection, schedule: Q01DX001 (ip), vehicle: other).
